Measured values published in patent US20210316013A1, “HAEMATOPOIETIC STEM CELL-GENE THERAPY FOR WISKOTT-ALDRICH SYNDROME” (priority 2018, published 2021).

System: Jurkat cells
Assay: Titration of 6TG dosing window, Jurkat cell viability
Type: cell-based
Settings: 6TG 0.01-100 μM, viability after 2 days, cell counter TC20
Experimental: Jurkat cells were incubated in a 96-well plate with different concentrations of 6TG (0.01-100 μM). After 2 days, viability of the cells was measured with cell counter TC20. Optimal 6TG dose for Jurkat cells was estimated to be approx. 504. A nominal concentration of 2.5 μM 6TG was elected for subsequent chemo-selection experiments. The results are illustrated in FIG. 20A.

Nc1nc2nc[nH]c2c(=S)[nH]1 [Candidate 6TG, 6-thioguanine]
Optimal 6TG dose for Jurkat cells: approx. 504
